In article PMC9268013, “Design, Synthesis, and Biological Evaluation of N14-Amino Acid-Substituted Tetrandrine Derivatives as Potential Antitumor Agents against Human Colorectal Cancer” (Molecules, 2022):

What was measured:
[1] = system: human pancreatic cancer cells (BxPC-3); test: MTT antiproliferative assay, BxPC-3; type: cell-based; conditions: Homo sapiens, BXPC-3, 72 h
Description: (§1) Human lung cancer cell (A549,), human umbilical vein endothelial cells (HUVECs,), human colon cancer cell lines (HCT-15), human breast cancer cells (MCF-7), human liver cancer cells (HepG2), human pancreatic cancer cells (BxPC-3), and human hepatic cell line (L-02) were obtained from the Sichuan University. A549, HUVECs, and L-02 were cultured in DMEM medium (high glucose, HyClone, GE Healthcare, Sydney, Australia). Human colon cancer cell lines HCT-15, human pancreatic cancer cells […] BxPC-3 were cultured in RPMI-1640. Human breast cancer cells MCF-7 and human liver cancer cells HepG2 were cultured in MEM medium. All the mediums, including 10% fetal bovine serum (FBS, HyClone, GE Healthcare, Sydney, Australia) and 1% ampicillin/streptomycin, were used to culture the above cells at 37 °C in a humidified atmosphere (5% CO2 and 95% air).
(§2) The antiproliferative activity of the title compounds was determined using the MTT (3-(4,5-dimethylthiazol-2-yl)-2,5-diphenyltetrazolium bromide, Sigma-Aldrich, Saint Louis, MO, USA) assay on different cells. Cells lines were seeded into 96-well plates at a density of 2000 to 6000 cells/well. DMSO was used to dissolve the test compounds, and TET was used as a positive control. After 24 h, the test compounds were added at different concentrations (0.625, 1.25, 2.5, 5, 10, and 20 μM) and incubated at 37 °C for 72 h. MTT was added to each well at a final concentration of 0.5 mg/mL and incubated at 37 °C for 4 h. Then, 150 μL of DMSO was added to each well to dissolve the formazan crystals. The absorbance was measured at 570 nm by a microplate reader (ELX800UV, Bio-Tek, Windoski, VT, USA). All measurements were repeated at least three times under the same conditions. Graphpad Prism 8.0 was used to calculate the IC50 values.

[2] = system: human colon cancer cells (HCT-15); test: MTT antiproliferative assay, HCT-15; type: cell-based; conditions: for Improvement of antiproliferative activity compared with TET: HCT-15 cells, vs TET (IC50 = 6.12 μM); for IC50: Homo sapiens, MTT, 72 h, HCT-15
Description: as §1, §2

[3] = system: human umbilical vein endothelial cells (HUVEC); test: MTT antiproliferative assay, HUVEC; type: cell-based; conditions: 72 h
Description: as §1, §2

[4] = Aqueous solubility determination by HPLC; type: physicochemical; conditions: neutral water
Description: Briefly, each tested compound (10 mg) was dissolved in 10 mL of CH3OH, and the standard solution (0.5 mL) was used to determine the wavelength of maximum absorbance by HPLC. The solution was diluted as necessary, and the solubility was determined by linear regression with R^2 > 0.999. Each tested compound (5 mg) was ultrasound dissolved in 3 mL of pure water for 1 h at room temperature, and the mixture was then […] at 3000 rpm for 15 min. The saturated supernatants were determined by HPLC at the wavelength of the maximum absorption, and the absorbances were obtained. The solubility was calculated according to the standard curve.

[5] = system: human lung cancer cells (A549); test: MTT antiproliferative assay, A549; type: cell-based; conditions: Homo sapiens, A549, 72 h
Description: as §1, §2

[6] = system: human liver cancer cells (HepG2); test: MTT antiproliferative assay, HepG2; type: cell-based; conditions: Homo sapiens, HepG2, 72 h
Description: as §1, §2

[7] = system: human normal hepatocyte cells (L-02); test: MTT toxicity assay, normal hepatocytes L-02; type: cell-based; conditions: 72 h, normal hepatocyte L-02 (toxicity), read-out: Antiproliferative Activity (IC50/μM) L-02
Description: as §1, §2

[8] = system: human breast cancer cells (MCF-7); test: MTT antiproliferative assay, MCF-7; type: cell-based; conditions: Homo sapiens, MCF7, 72 h
Description: as §1, §2

HCT-15 cells = test: Flow cytometry Annexin V-FITC/PI apoptosis analysis; type: cell-based, human; conditions: HCT-15, TET treatment groups (1.25, 2.5, 5 μM), 48 h
Description: HCT-15 cells were cultured in complete medium in six-well plates for 24 h, and […]. 2.5, 5 μM of 16 was added in triplicate for 48 h incubation. The cells were digested with trypsin without EDTA, washed twice with cold PBS, and resuspended in 500 μL binding buffer. The cell suspension was stained successively with 5 μL Annexin V-FITC and 5 μL PI (Keygen Biotech, Nanjing, China), and cultured for 15 min and 5 min in total dark, respectively. Afterwards, the percentages of apoptotic cells were determined by a flow cytometry. Data were analyzed by FlowJo software (Version 10, FlowJo, LLC, Ashland, OR, USA).

IC50 [1]	IC50 [2]	Increase of aqueous solubility compared to TET ([4]; vs TET)	IC50 [5]	IC50 [6]	IC50 [8]	Compound	Improvement of antiproliferative activity compared with TET [2]	IC50 [3]	IC50 [7]	Percentage of apoptotic cells (HCT-15 cells)	solubility at 1 h ([4]; pure water, thermodynamic from solid, room temperature, HPLC)
2.55 ± 0.03 µM	2.42 ± 0.06 µM	approximately 16 fold	2.15 ± 0.17 µM	1.94 ± 0.27 µM	2.91 ± 0.17 µM	COc1cc(NC(=O)CNC(=O)OC(C)(C)C)c2cc1Oc1ccc(cc1)C[C@H]1c3cc(c(OC)cc3CCN1C)Oc1c(OC)c(OC)cc3c1[C@H](C2)N(C)CC3 [Compound 3, 14-N-(Boc-L-glycine)-tetrandrine]	about 2 fold	1.68 ± 0.21 µM	8.59 ± 0.13 µM		
4.74 ± 0.37 µM	3.28 ± 0.32 µM		7.44 ± 1.11 µM	3.9 ± 0.62 µM	5.78 ± 0.35 µM	COc1cc(NC(=O)[C@H](C)NC(=O)OC(C)(C)C)c2cc1Oc1ccc(cc1)C[C@H]1c3cc(c(OC)cc3CCN1C)Oc1c(OC)c(OC)cc3c1[C@H](C2)N(C)CC3 [Compound 4]		4.01 ± 0.41 µM	> 20 µM		
4.63 ± 0.09 µM	4.31 ± 0.09 µM		7.24 ± 0.41 µM	3.54 ± 0.3 µM	7.4 ± 0.31 µM	COc1cc(NC(=O)[C@@H](NC(=O)OC(C)(C)C)C(C)C)c2cc1Oc1ccc(cc1)C[C@H]1c3cc(c(OC)cc3CCN1C)Oc1c(OC)c(OC)cc3c1[C@H](C2)N(C)CC3 [Compound 5]		3.04 ± 0.34 µM	> 20 µM		
6.39 ± 0.2 µM	3.89 ± 0.47 µM		5.54 ± 0.16 µM	3.11 ± 0.68 µM	4.99 ± 0.66 µM	COc1cc(NC(=O)[C@H](CC(C)C)NC(=O)OC(C)(C)C)c2cc1Oc1ccc(cc1)C[C@H]1c3cc(c(OC)cc3CCN1C)Oc1c(OC)c(OC)cc3c1[C@H](C2)N(C)CC3 [Compound 6]		2.09 ± 0.19 µM	13.58 ± 0.13 µM		
3.1 ± 0.26 µM	1.15 ± 0.17 µM		6.4 ± 0.36 µM	3.5 ± 1.37 µM	5.71 ± 0.29 µM	COc1cc(NC(=O)[C@H]2CCCN2C(=O)OC(C)(C)C)c2cc1Oc1ccc(cc1)C[C@H]1c3cc(c(OC)cc3CCN1C)Oc1c(OC)c(OC)cc3c1[C@H](C2)N(C)CC3 [Compound 7, 14-N-(Boc-L-proline)-tetrandrine]		3.49 ± 0.31 µM	17.5 ± 0.21 µM		
3.55 ± 0.32 µM	5.87 ± 0.3 µM		7.45 ± 0.32 µM	3.76 ± 1.34 µM	5.84 ± 0.25 µM	COc1cc(NC(=O)[C@H](CO)NC(=O)OC(C)(C)C)c2cc1Oc1ccc(cc1)C[C@H]1c3cc(c(OC)cc3CCN1C)Oc1c(OC)c(OC)cc3c1[C@H](C2)N(C)CC3 [Compound 8, 14-N-(Boc-L-serine)-tetrandrine]		3.96 ± 0.36 µM	> 20 µM		
13.1 ± 0.37 µM	8.57 ± 0.57 µM		12.3 ± 0.61 µM	6.97 ± 0.34 µM	11.3 ± 0.55 µM	COc1cc(NC(=O)[C@@H](NC(=O)OC(C)(C)C)[C@@H](C)O)c2cc1Oc1ccc(cc1)C[C@H]1c3cc(c(OC)cc3CCN1C)Oc1c(OC)c(OC)cc3c1[C@H](C2)N(C)CC3 [Compound 9]		4.91 ± 1.05 µM	> 20 µM		
2.31 ± 0.08 µM	0.91 ± 0.05 µM		1.96 ± 0.24 µM	1.54 ± 0.02 µM	2.59 ± 0.11 µM	COc1cc(NC(=O)[C@@H](Cc2ccccc2)NC(=O)OC(C)(C)C)c2cc1Oc1ccc(cc1)C[C@H]1c3cc(c(OC)cc3CCN1C)Oc1c(OC)c(OC)cc3c1[C@H](C2)N(C)CC3 [Compound 10]	more than 6 fold	1.8 ± 0.02 µM	15.54 ± 0.11 µM		
3.58 ± 0.15 µM	3.56 ± 0.27 µM		6.26 ± 0.41 µM	2.81 ± 0.35 µM	5.03 ± 0.04 µM	COc1cc(NC(=O)[C@H](Cc2ccc(O)cc2)NC(=O)OC(C)(C)C)c2cc1Oc1ccc(cc1)C[C@H]1c3cc(c(OC)cc3CCN1C)Oc1c(OC)c(OC)cc3c1[C@H](C2)N(C)CC3 [Compound 11, 14-N-(Boc-L-tyrosine)-tetrandrine]		2.16 ± 0.32 µM	11.8 ± 0.61 µM		
3.98 ± 0.16 µM	3.54 ± 0.36 µM		4.94 ± 0.45 µM	3.19 ± 0.76 µM	6.91 ± 0.66 µM	COc1cc(NC(=O)CN)c2cc1Oc1ccc(cc1)C[C@H]1c3cc(c(OC)cc3CCN1C)Oc1c(OC)c(OC)cc3c1[C@H](C2)N(C)CC3 [Compound 12, 14-N-(L-glycine)-tetrandrine]		3.19 ± 0.61 µM	> 20 µM		
6.95 ± 0.57 µM	4.69 ± 0.47 µM		8.12 ± 0.43 µM	3.27 ± 1 µM	11.1 ± 0.26 µM	COc1cc(NC(=O)[C@H](C)N)c2cc1Oc1ccc(cc1)C[C@H]1c3cc(c(OC)cc3CCN1C)Oc1c(OC)c(OC)cc3c1[C@H](C2)N(C)CC3 [Compound 13]		2.2 ± 0.37 µM	> 20 µM		
4.95 ± 0.29 µM	4.02 ± 0.15 µM		6.11 ± 0.91 µM	3.26 ± 0.05 µM	7.96 ± 1.08 µM	COc1cc(NC(=O)[C@@H](N)C(C)C)c2cc1Oc1ccc(cc1)C[C@H]1c3cc(c(OC)cc3CCN1C)Oc1c(OC)c(OC)cc3c1[C@H](C2)N(C)CC3 [Compound 14, 14-N-(L-valine)-tetrandrine]		2.48 ± 0.15 µM	14.5 ± 0.37 µM		
4.55 ± 0.27 µM	2.71 ± 0.22 µM		5.92 ± 0.73 µM	3.66 ± 0.82 µM	6.74 ± 0.16 µM	COc1cc(NC(=O)[C@@H](N)CC(C)C)c2cc1Oc1ccc(cc1)C[C@H]1c3cc(c(OC)cc3CCN1C)Oc1c(OC)c(OC)cc3c1[C@H](C2)N(C)CC3 [Compound 15, 14-N-(L-leucine)-tetrandrine]		3.09 ± 0.36 µM	12.08 ± 0.04 µM		
3.67 ± 0.19 µM	3.94 ± 0.37 µM		7.44 ± 1.02 µM	3.13 ± 0.7 µM	7.53 ± 0.11 µM	COc1cc(NC(=O)[C@@H](N)CO)c2cc1Oc1ccc(cc1)C[C@H]1c3cc(c(OC)cc3CCN1C)Oc1c(OC)c(OC)cc3c1[C@H](C2)N(C)CC3 [Compound 17, 14-N-(L-serine)-tetrandrine]		2.88 ± 0.26 µM	> 20 µM		
5.6 ± 0.38 µM	5.28 ± 0.37 µM		6.81 ± 1.1 µM	3.57 ± 0.67 µM	10.2 ± 0.4 µM	COc1cc(NC(=O)[C@@H](N)[C@@H](C)O)c2cc1Oc1ccc(cc1)C[C@H]1c3cc(c(OC)cc3CCN1C)Oc1c(OC)c(OC)cc3c1[C@H](C2)N(C)CC3 [Compound 18, 14-N-(L-threonine)-tetrandrine]		3.25 ± 0.69 µM	> 20 µM		
1.75 ± 0.13 µM	3.39 ± 0.07 µM		2.67 ± 0.14 µM	1.71 ± 0.46 µM	3.31 ± 0.01 µM	COc1cc(NC(=O)[C@H](N)Cc2ccccc2)c2cc1Oc1ccc(cc1)C[C@H]1c3cc(c(OC)cc3CCN1C)Oc1c(OC)c(OC)cc3c1[C@H](C2)N(C)CC3 [Compound 19]		1.92 ± 0.17 µM	9.02 ± 0.26 µM		
2.36 ± 0.15 µM	3.33 ± 0.08 µM		4.12 ± 0.27 µM	1.44 ± 0.18 µM	3.7 ± 0.91 µM	COc1cc(NC(=O)[C@@H](N)Cc2ccc(O)cc2)c2cc1Oc1ccc(cc1)C[C@H]1c3cc(c(OC)cc3CCN1C)Oc1c(OC)c(OC)cc3c1[C@H](C2)N(C)CC3 [Compound 20, 14-N-(L-tyrosine)-tetrandrine]		1.91 ± 0.09 µM	10 ± 1.28 µM		

Compound	IC50 [1]	IC50 [2]	Increase of aqueous solubility compared to TET ([4]; vs TET)	IC50 [5]	IC50 [6]	IC50 [8]	Improvement of antiproliferative activity compared with TET [2]	IC50 [3]	IC50 [7]	Percentage of apoptotic cells (HCT-15 cells)	solubility at 1 h ([4]; pure water, thermodynamic from solid, room temperature, HPLC)
COc1ccc2cc1Oc1ccc(cc1)C[C@H]1c3cc(c(OC)cc3CCN1C)Oc1c(OC)c(OC)cc3c1[C@H](C2)N(C)CC3 [TET, tetrandrine]	7.6 ± 0.16 µM	6.12 ± 0.51 µM		6.39 ± 0.83 µM	3.25 ± 0.11 µM	3.9 ± 0.47 µM		3.62 ± 0.02 µM	16 ± 1.18 µM	lower than 14%	< 30 µg/mL
